In US20240409585A1, “MACROCYCLIC IMMUNOMODULATORS” (priority 2021, published 2024):
Like-named read-outs stand apart in the source and are kept apart here. Numbered stars: 1 amine (or outer) side, 2 acyl side, 3 side chain; on linkers, the order of the positions; unused ones are H or OH. Bridge positions count the residues as written; N and C are the ends. Square brackets hold non-standard residues; d marks the D form. Peptide text beside a SMILES is read from it. * marks the point of attachment. Bip(4'-NHAc) = CC(=O)Nc1ccc(-c2ccc(C[C@H](N)C(=O)O)cc2)cc1; Phe(3-CF3) = N[C@@H](Cc1cccc(C(F)(F)F)c1)C(=O)O; Ala(morpholin-4-yl) = N[C@@H](CN1CCOCC1)C(=O)O; Phe(4-CONH2) = NC(=O)c1ccc(C[C@H](N)C(=O)O)cc1; Phe(4-COOH) = N[C@@H](Cc1ccc(C(=O)O)cc1)C(=O)O; X5 = CS(=O)(=O)NC(=O)C[C@H](N[*:1])C(=O)[*:2]; Bip = N[C@@H](Cc1ccc(-c2ccccc2)cc1)C(=O)O; Abu(3R-NH2) = C[C@@H](N)[C@H](N)C(=O)O; Phe(3-Me) = Cc1cccc(C[C@H](N)C(=O)O)c1; Abu(3S-NH2) = C[C@H](N)[C@H](N)C(=O)O; Val(3-OH) = CC(C)(O)[C@H](N)C(=O)O; hArg = N=C(N)NCCCC[C@H](N)C(=O)O; hPhe = N[C@@H](CCc1ccccc1)C(=O)O; Cha = N[C@@H](CC1CCCCC1)C(=O)O; aThr = C[C@H](O)[C@H](N)C(=O)O; Suc = O=C(CCC(=O)[*:2])[*:1]; Carboxymethyl = O=C(O)C*; NMeA = CN[C@@H](C)C(=O)O; Orn = NCCC[C@H](N)C(=O)O; Dab = NCC[C@H](N)C(=O)O; Dap = NC[C@H](N)C(=O)O

Target: T1, Alexa fluor-647 labeled human PD-L1-Ig binding to Jurkat cell line over-expressing human PD-1 (Homo sapiens, UniProt Q15116)
T1 construct: expressed in transfected cells; host or cells: Jurkat
T1 sequence (Q15116 25-288): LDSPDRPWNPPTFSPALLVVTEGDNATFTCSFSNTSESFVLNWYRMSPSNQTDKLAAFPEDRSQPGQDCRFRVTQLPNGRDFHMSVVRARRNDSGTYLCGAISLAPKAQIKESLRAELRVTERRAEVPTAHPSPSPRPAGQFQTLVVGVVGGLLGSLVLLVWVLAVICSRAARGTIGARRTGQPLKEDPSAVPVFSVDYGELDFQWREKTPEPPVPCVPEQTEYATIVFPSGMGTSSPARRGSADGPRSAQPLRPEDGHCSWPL
Experiment: Jurkat-PD-1 Cell Binding High-Content Screening Assay (CBA): Method 3 (Alexa fluor-647 labeled PD-L1-Ig)
Details: Jurkat-PD-1 cells, Alexa fluor-647 labeled PD-L1-Ig 177 nM
Procedure, shortened: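 Readout by high-content imaging of PFA-fixed, Hoechst-stained cells after 1 h with 177 nM (final) Alexa fluor-647 PD-L1-Ig. Compound was added first to hPD-1 Jurkat cells in RPMI plus 10% FCS for 2 h at 37 °C.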

[1] = head μM, read-out: CBA Method 3 μM

Q: For `CC(C)C[C@H]1NC(=O)[C@H](C)N(C)C(=O)[C@H](CCC(N)=O)NC(=O)[C@H](Cc2ccc(-c3ccccc3)cc2)NC(=O)[C@H](Cc2ccc(OCC(=O)O)cc2)NC(=O)[C@H](Cc2cccc(C(F)(F)F)c2)NC(=O)[C@H](CC(=O)O)NC(=O)[C@H](Cc2ccc(OCC(=O)O)cc2)NC(=O)[C@H]([C@@H](C)N)NC(=O)CSC[C@@H](C(=O)N[C@@H](CCN)C(N)=O)NC(=O)[C@H](CCCN)NC(=O)[C@H](C(C)C)NC(=O)[C@H](CC2CCCCC2)NC(=O)[C@H](CCN)NC1=O` [Example 5220] ({CH2CO}-[Abu(3R-NH2)]Y(Carboxymethyl)D[Phe(3-CF3)]Y(Carboxymethyl)[Bip]Q[NMeA][dL][Dab][Cha]V[Orn]C[Dab]-NH2; thioether N-14), which IC50 (nM, read-out: CBA Method 3) is on record?
A: 2.4 nM

Q: Which IC50 [1] does the source give for `CC(C)[C@@H]1NC(=O)[C@H](Cc2c[nH]c3ccccc23)NC(=O)[C@H](CC(=O)O)NC(=O)[C@H](Cc2ccc(O)cc2)NC(=O)[C@H](CC2CCCCC2)NC(=O)CSC[C@@H](C(=O)N[C@@H](CCN)C(N)=O)NC(=O)[C@H]([C@H](C)O)NC(=O)[C@H](C(C)(C)O)NC(=O)[C@H](CC2CCCCC2)NC(=O)[C@H](CCC(=O)O)NC(=O)[C@@H](C)NC(=O)[C@H](C)N(C)C(=O)[C@H](C(C)C)NC(=O)[C@H](Cc2ccc(-c3ccccc3)cc2)NC1=O` [Example 5150] ({CH2CO}-[Cha]YDWV[Bip]V[NMeA][dA]E[Cha][Val(3-OH)][aThr]C[Dab]-NH2; thioether N-14) here?
A: 60 nM

Q: With `CC(C)C[C@H]1NC(=O)[C@H](C)N(C)C(=O)[C@H](CCC(N)=O)NC(=O)[C@H](Cc2ccc(-c3ccccc3)cc2)NC(=O)[C@H](CCc2ccccc2)NC(=O)[C@H](Cc2cccc(C(F)(F)F)c2)NC(=O)[C@H](CC(=O)O)NC(=O)[C@H](Cc2ccc(OCC(=O)O)cc2)NC(=O)[C@H](CC2CCCCC2)NC(=O)CSC[C@@H](C(=O)N[C@@H](CCN)C(N)=O)NC(=O)[C@H](CCC(=O)O)NC(=O)[C@H](C(C)C)NC(=O)[C@H](CC2CCCCC2)NC(=O)[C@H](CCN)NC1=O` [Example 5213] ({CH2CO}-[Cha]Y(Carboxymethyl)D[Phe(3-CF3)][hPhe][Bip]Q[NMeA][dL][Dab][Cha]VEC[Dab]-NH2; thioether N-14) as the molecule, how does the IC50 [1] read?
A: 330 nM

Q: `Cc1cccc(C[C@@H]2NC(=O)[C@H](CC(=O)O)NC(=O)[C@H](Cc3ccc(OCC(=O)O)cc3)NC(=O)[C@H](CCCCNC(=N)N)NC(=O)CSC[C@@H](C(=O)N[C@@H](CCN)C(N)=O)NC(=O)[C@H](CCC(=O)O)NC(=O)[C@H](C(C)C)NC(=O)[C@H](CC3CCCCC3)NC(=O)[C@H](CCN)NC(=O)[C@@H](CC(C)C)NC(=O)[C@H](C)N(C)C(=O)[C@H](CCC(N)=O)NC(=O)[C@H](Cc3ccc(-c4ccccc4)cc3)NC(=O)[C@H](CCc3ccccc3)NC2=O)c1` [Example 5283] ({CH2CO}-[hArg]Y(Carboxymethyl)D[Phe(3-Me)][hPhe][Bip]Q[NMeA][dL][Dab][Cha]VEC[Dab]-NH2; thioether N-14) was tested. Which IC50 [1] did it give?
A: 10 nM

Q: Which IC50 [1] does the source give for `CC(=O)Nc1ccc(-c2ccc(C[C@@H]3NC(=O)[C@H](Cc4cccc(C)c4)NC(=O)[C@H](CC(=O)O)NC(=O)[C@H](Cc4ccc(C(=O)O)cc4)NC(=O)[C@H](CC4CCCCC4)NC(=O)CSC[C@@H](C(=O)N[C@@H](CCN)C(N)=O)NC(=O)[C@H](CCC(=O)O)NC(=O)[C@H](C(C)C)NC(=O)[C@H](CC4CCCCC4)NC(=O)[C@H](CCN)NC(=O)[C@@H](CC(C)C)NC(=O)[C@H](C)N(C)C(=O)[C@H](CCC(N)=O)NC(=O)[C@H](Cc4ccc(-c5ccccc5)cc4)NC3=O)cc2)cc1` [Example 5203] ({CH2CO}-[Cha][Phe(4-COOH)]D[Phe(3-Me)][Bip(4'-NHAc)][Bip]Q[NMeA][dL][Dab][Cha]VEC[Dab]-NH2; thioether N-14) here?
A: 10 nM

Q: Which IC50 (nM, read-out: CBA Method 3) does the source give for `CC(C)C[C@H]1NC(=O)[C@H](C)N(C)C(=O)[C@H](Cc2ccc(C(=O)O)cc2)NC(=O)[C@H](Cc2ccc(-c3ccccc3)cc2)NC(=O)[C@H](Cc2ccc(C(=O)O)cc2)NC(=O)[C@H](Cc2cccc(C(F)(F)F)c2)NC(=O)[C@H](CC(=O)O)NC(=O)[C@H](Cc2ccc(C(=O)O)cc2)NC(=O)[C@H](CC2CCCCC2)NC(=O)CSC[C@@H](C(=O)N[C@@H](CCN)C(N)=O)NC(=O)[C@H](CNC(=O)CCC(=O)O)NC(=O)[C@H](C(C)C)NC(=O)[C@H](CC2CCCCC2)NC(=O)[C@H](CCN)NC1=O` [Example 5228] ({CH2CO}-[Cha][Phe(4-COOH)]D[Phe(3-CF3)][Phe(4-COOH)][Bip][Phe(4-COOH)][NMeA][dL][Dab][Cha]V[Dap](Suc)C[Dab]-NH2; thioether N-14) here?
A: 0.8 nM

Q: `CC(=O)Nc1ccc(-c2ccc(C[C@@H]3NC(=O)[C@H](Cc4cccc(C(F)(F)F)c4)NC(=O)[C@H](CC(=O)NS(C)(=O)=O)NC(=O)[C@H](Cc4ccc(C(=O)O)cc4)NC(=O)[C@H]([C@H](C)N)NC(=O)CSC[C@@H](C(=O)N[C@@H](CCN)C(N)=O)NC(=O)[C@H](CCC(N)=O)NC(=O)[C@H](C(C)C)NC(=O)[C@H](CC4CCCCC4)NC(=O)[C@H](CCN)NC(=O)[C@@H](CC(C)C)NC(=O)[C@H](C)N(C)C(=O)[C@H](Cc4ccc(C(N)=O)cc4)NC(=O)[C@H](Cc4ccc(-c5ccccc5)cc4)NC3=O)cc2)cc1` [Example 5099] ({CH2CO}-[Abu(3S-NH2)][Phe(4-COOH)][X5][Phe(3-CF3)][Bip(4'-NHAc)][Bip][Phe(4-CONH2)][NMeA][dL][Dab][Cha]VQC[Dab]-NH2; thioether N-14) was tested. Which IC50 [1] did it give?
A: 650 nM

Q: How did the IC50 (nM, read-out: CBA Method 3) turn out when `Cc1cccc(C[C@@H]2NC(=O)[C@H](CC(=O)O)NC(=O)[C@H](Cc3ccc(OCC(=O)O)cc3)NC(=O)[C@H](CCN)NC(=O)CSC[C@@H](C(=O)N[C@@H](CCN)C(N)=O)NC(=O)[C@H](CCCN)NC(=O)[C@H](C(C)C)NC(=O)[C@H](CC3CCCCC3)NC(=O)[C@H](CCN)NC(=O)[C@@H](CC(C)C)NC(=O)[C@H](C)N(C)C(=O)[C@H](CCC(N)=O)NC(=O)[C@H](Cc3ccc(-c4ccccc4)cc3)NC(=O)[C@H](Cc3ccc(C(=O)O)cc3)NC2=O)c1` [Example 5179] ({CH2CO}-[Dab]Y(Carboxymethyl)D[Phe(3-Me)][Phe(4-COOH)][Bip]Q[NMeA][dL][Dab][Cha]V[Orn]C[Dab]-NH2; thioether N-14) was run?
A: 3.9 nM

Q: With `Cc1cccc(C[C@@H]2NC(=O)[C@H](CC(=O)O)NC(=O)[C@H](Cc3ccc(OCC(=O)O)cc3)NC(=O)[C@H](CCC(=O)O)NC(=O)CSC[C@@H](C(=O)N[C@@H](CCN)C(N)=O)NC(=O)[C@H](CCCN)NC(=O)[C@H](C(C)C)NC(=O)[C@H](CC3CCCCC3)NC(=O)[C@H](CCN)NC(=O)[C@@H](CC(C)C)NC(=O)[C@H](C)N(C)C(=O)[C@H](CCC(N)=O)NC(=O)[C@H](Cc3ccc(-c4ccccc4)cc3)NC(=O)[C@H](Cc3ccc(C(=O)O)cc3)NC2=O)c1` [Example 5170] ({CH2CO}-EY(Carboxymethyl)D[Phe(3-Me)][Phe(4-COOH)][Bip]Q[NMeA][dL][Dab][Cha]V[Orn]C[Dab]-NH2; thioether N-14) as the molecule, how does the IC50 (nM, read-out: CBA Method 3) read?
A: 5.9 nM

Q: With `CC(C)C[C@@H]1NC(=O)[C@H](Cc2c[nH]c3ccccc23)NC(=O)[C@H](CC(=O)O)NC(=O)[C@H](Cc2ccc(C(=O)O)cc2)NC(=O)[C@H](Cc2ccc(OCC(=O)O)cc2)NC(=O)CSC[C@@H](C(=O)N[C@@H](CCCN)C(N)=O)NC(=O)[C@H](C(C)C)NC(=O)[C@H]([C@@H](C)O)NC(=O)[C@H](CC2CCCCC2)NC(=O)[C@H](CCN)NC(=O)[C@@H](CC(C)C)NC(=O)[C@H](C)N(C)C(=O)[C@H](C(C)C)NC(=O)[C@H](Cc2ccc(-c3ccccc3)cc2)NC1=O` [Example 5140] ({CH2CO}-Y(Carboxymethyl)[Phe(4-COOH)]DWL[Bip]V[NMeA][dL][Dab][Cha]TVC[Orn]-NH2; thioether N-14) as the molecule, how does the IC50 [1] read?
A: 10 nM

Q: How did the IC50 [1] turn out when `CC(C)C[C@H]1NC(=O)[C@H](C)N(C)C(=O)[C@H](Cc2ccc(C(=O)O)cc2)NC(=O)[C@H](Cc2ccc(-c3ccccc3)cc2)NC(=O)[C@H](CCc2ccccc2)NC(=O)[C@H](Cc2cccc(C(F)(F)F)c2)NC(=O)[C@H](CC(=O)N[C@@H](CC(=O)O)C(=O)O)NC(=O)[C@H](Cc2ccc(C(=O)O)cc2)NC(=O)[C@H](CN2CCOCC2)NC(=O)CSC[C@@H](C(=O)N[C@@H](CCN)C(N)=O)NC(=O)[C@H](CCC(N)=O)NC(=O)[C@H](C(C)C)NC(=O)[C@H](CC2CCCCC2)NC(=O)[C@H](CCN)NC1=O` [Example 5281] ({CH2CO}-[Ala(morpholin-4-yl)][Phe(4-COOH)]D(Asp)[Phe(3-CF3)][hPhe][Bip][Phe(4-COOH)][NMeA][dL][Dab][Cha]VQC[Dab]-NH2; thioether N-14) was run?
A: 160 nM

Q: For `CC(=O)Nc1ccc(-c2ccc(C[C@@H]3NC(=O)[C@H](Cc4cccc(C(F)(F)F)c4)NC(=O)[C@H](CC(=O)O)NC(=O)[C@H](Cc4ccc(C(=O)O)cc4)NC(=O)[C@H](CN4CCOCC4)NC(=O)CSC[C@@H](C(=O)N[C@@H](CCN)C(N)=O)NC(=O)[C@H](CCC(=O)O)NC(=O)[C@H](C(C)C)NC(=O)[C@H](CC4CCCCC4)NC(=O)[C@H](CCN)NC(=O)[C@@H](CC(C)C)NC(=O)[C@H](C)N(C)C(=O)[C@H](Cc4ccc(C(=O)O)cc4)NC(=O)[C@H](Cc4ccc(-c5ccccc5)cc4)NC3=O)cc2)cc1` [Example 5149] ({CH2CO}-[Ala(morpholin-4-yl)][Phe(4-COOH)]D[Phe(3-CF3)][Bip(4'-NHAc)][Bip][Phe(4-COOH)][NMeA][dL][Dab][Cha]VEC[Dab]-NH2; thioether N-14), which IC50 (nM, read-out: CBA Method 3) is on record?
A: 5.9 nM

Q: How did the IC50 [1] turn out when `CC(=O)Nc1ccc(-c2ccc(C[C@@H]3NC(=O)[C@H](Cc4cccc(C(F)(F)F)c4)NC(=O)[C@H](CC(=O)O)NC(=O)[C@H](Cc4ccc(C(=O)O)cc4)NC(=O)[C@H](CC(C)C)NC(=O)CSC[C@@H](C(=O)N[C@@H](CCN)C(N)=O)NC(=O)[C@H](CCCN)NC(=O)[C@H](C(C)C)NC(=O)[C@H](CC4CCCCC4)NC(=O)[C@H](CCN)NC(=O)[C@@H](CC(C)C)NC(=O)[C@H](C)N(C)C(=O)[C@H](CCCN)NC(=O)[C@H](Cc4ccc(-c5ccccc5)cc4)NC3=O)cc2)cc1` [Example 5096] ({CH2CO}-L[Phe(4-COOH)]D[Phe(3-CF3)][Bip(4'-NHAc)][Bip][Orn][NMeA][dL][Dab][Cha]V[Orn]C[Dab]-NH2; thioether N-14) was run?
A: 40 nM
